# According to patent US20090181948A1, “DIAMINE DERIVATIVE” (KYOWA HAKKO KOGYO CO., LTD., priority 2005, published 2009):
# Assays:
# histamine H3 receptor [1] = target: T1, histamine H3 receptor (Rattus norvegicus, UniProt Q9QYN8); experiment: Histamine H3 receptor binding assay ([3H]-Nα-methylhistamine binding to rat striatum homogenate); conditions: 1 μmol/L test compound; [3H]-Nα-methylhistamine 1 nmol/L; striata of Sprague-Dawley male rats, 25° C., 1 hour; read-out: Inhibition ratio of [3H]-Nα-methylhistamine binding
# T1 construct: from tissue; host or cells: rat striatum (Sprague-Dawley, male, 6 weeks), membrane homogenate
# Outline: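 Rat striatum membranes (20 μg protein) incubated with [3H]-Nα-methylhistamine 1 nmol/L in 50 mmol/L Tris/HCl pH 7.4, 5 mmol/L EDTA, 1 hour at 25° C; bound ligand by filtration and scintillation counting. Nonspecific binding defined with 10 μmol/L thioperamide; % inhibition reported at 1 μmol/L compound.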
# histamine H3 receptor [2] = target: T1, histamine H3 receptor; experiment: Inhibitory effect on histamine release suppressive action of histamine H3 receptor agonist (Nα-methylhistamine) in rat forebrain synaptosomes; assay type: biochemical; conditions: 1 μmol/L test compound and 1 μmol/L Nα-methylhistamine, potassium 30 mmol/L stimulation, read-out: Inhibition ratio of the [3H]-histamine release suppressive action of Nα-methylhistamine
# Procedure: To the forebrains of Sprague-Dawley male rats (6 to 8 weeks of age), a 30-fold volume of a 0.32 mol/L aqueous sucrose solution was added and the forebrains were homogenized. The resulting homogenate was centrifuged (1,000×g, 4° C., 10 min), and to the obtained supernatant, an equivalent volume of Krebs-Ringer solution [120 mmol/L sodium chloride, 0.8 mmol/L potassium chloride, 2.6 mmol/L calcium chloride, 0.67 mmol/L magnesium sulfate, 1.2 mmol/L potassium dihydrogen phosphate, 27.5 mmol/L sodium bicarbonate, 10 mmol/L glucose (pH 7.3)] was added, and the resulting mixture was centrifuged (10,000×g, 4° C., 15 min). To the obtained precipitate, a 15-fold volume of Krebs-Ringer solution was added to suspend the precipitate. Then, the concentration of protein in the resulting tissue homogenate (synaptosomes) was measured and used for a test.
# To the synaptosomes (300 μg in terms of protein amount) prepared by the above-described method, a [^3H]-histidine solution [final concentration: […] (740 kBq)/mL]: 6 μl of a 37 MBq/mL (specific activity: […]) solution] was added, and the total volume was adjusted to 300 μL with Krebs-Ringer solution. Then, the resulting mixture was incubated at 37° C. for 30 minutes and centrifuged (10,000×g, 25° C., 3 min). To the resulting precipitate (synaptosomes), 300 μL of Krebs-Ringer solution was added, and the mixture was incubated at 37° C. for 5 minutes and centrifuged (10,000×g, 25° C., 3 min). This procedure was repeated 5 times, whereby washing of synaptosomes was carried out. The resulting synaptosomes were suspended in 100 μL of Krebs-Ringer solution, and the resulting suspension was used for the following procedure.
# A test compound and N^α-methylhistamine were separately dissolved in Krebs-Ringer solution to give a concentration of 20 μmol/L (the resulting mixtures were referred to as a test compound solution and a N^α-methylhistamine solution, respectively). To 100 μL of the above-described suspended synaptosomes (300 μg in terms of protein amount), 140 μL of Krebs-Ringer solution was added. Then, 30 μL of the test compound solution and 30 μL of the N^α-methylhistamine solution were added thereto, and the resulting mixture was incubated at 37° C. for 2 minutes. Then, an equivalent volume of a stimulating solution [64 mmol/L sodium chloride, 56.8 mmol/L potassium chloride, 2.6 mmol/L calcium chloride, 0.67 mmol/L magnesium sulfate, 1.2 mmol/L potassium dihydrogen phosphate, 27.5 mmol/L sodium bicarbonate, 10 mmol/L glucose (pH 7.3)] (final potassium concentration: 30 mmol/L) was added, and the resulting mixture was incubated at 37° C. for 2 minutes to release [^3H]-histamine. The reaction mixture was centrifuged (10,000×g, 25° C., 3 min), and the obtained supernatant was passed through Amberlite CG-50 column (250 μL), and the non-adsorbed fractions were discarded. Then, 2 mL of 50 mmol/L [[…]]/hydrochloric acid (HCl) (pH 7.5) (Tris) was passed through the column 3 times, and 2 mL of distilled water, and 1.5 mL of a 0.2 mol/L aqueous sodium hydroxide solution were passed through the column in this order, and the eluted fractions were discarded. Then, 2 mL of a 0.2 mol/L aqueous sodium hydroxide solution was passed through the column, and the eluted fraction was recovered in a scintillation vial. Then, 8 mL of Ultimagold (Perkin Elmer) was added to the recovered eluted solution, and the radioactivity ([^3H]-histamine) was measured using a liquid scintillation counter. The inhibitory action of the test compound on the histamine release suppressive action of N^α-methylhistamine was evaluated by obtaining the inhibition ratio to the histamine release suppressive action in the presence of 1 μmol/L No-methylhistamine and 1 μmol/L of the test compound. The inhibition ratio of the [^3H]-histamine release suppressive action was calculated using the following Equation (2). […]
# T1 sequence (Q9QYN8 whole entry): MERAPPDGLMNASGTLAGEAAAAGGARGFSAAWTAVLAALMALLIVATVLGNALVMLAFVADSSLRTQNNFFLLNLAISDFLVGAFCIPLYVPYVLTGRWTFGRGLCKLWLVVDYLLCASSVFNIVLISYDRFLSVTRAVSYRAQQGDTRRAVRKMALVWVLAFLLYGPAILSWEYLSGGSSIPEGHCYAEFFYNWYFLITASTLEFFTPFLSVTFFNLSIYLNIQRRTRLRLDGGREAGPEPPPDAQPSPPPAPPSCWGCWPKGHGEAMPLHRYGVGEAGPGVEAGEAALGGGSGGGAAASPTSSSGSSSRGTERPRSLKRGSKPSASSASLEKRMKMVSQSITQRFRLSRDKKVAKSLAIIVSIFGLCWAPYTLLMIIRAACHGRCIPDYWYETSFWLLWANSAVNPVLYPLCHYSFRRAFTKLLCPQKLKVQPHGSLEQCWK
SMILES,inhibition at 1 µM (histamine H3 receptor [1]),inhibition at 1 µM (histamine H3 receptor [2]),melting point
"CC1CCCN1CCCN1CCN(CCCN2CCC[C@@H]2CO)C1=C(C#N)C#N (stereo partly drawn) [Compound 119, {1-[3-((R)-2-hydroxymethylpyrrolidin-1-yl)propyl]-3-[3-(2-methylpyrrolidin-1-yl)propyl]imidazolidin-2-ylidene}malononitrile]",≥ 80%,≥ 70%,57 to 59 °C
"C[C@@H]1CCCN1CCCN1C(=C(C#N)C#N)N(CCCN2CCC[C@H]2C)c2ccccc21 [Compound 205, {1,3-Bis[3-((R)-2-methylpyrrolidin-1-yl)propyl]benzimidazolidin-2-ylidene}malononitrile]",≥ 80%,≥ 70%,96 to 97 °C
"C[C@H]1CCCN1CCN1CCN(CCCN2CCCCC2)C1=C(C#N)C#N [Compound 58, {1-[2-((S)-2-methylpyrrolidin-1-yl)ethyl]-3-(3-piperidinopropyl)imidazolidin-2-ylidene}malononitrile]",≥ 80%,≥ 70%,95 to 96 °C
"C[C@H]1CCCN1CCCN1CCN(CCCN2CCC[C@@H]2C)C1=C(C#N)C#N [Compound 115, {1,3-Bis[3-((S)-2-methylpyrrolidin-1-yl)propyl]imidazolidin-2-ylidene}malononitrile]",≥ 80%,≥ 70%,79 to 80 °C
"C[C@@H]1CCCN1CCN1CCN(CCN2CCC[C@H]2C)C1=C(C#N)C#N [Compound 189, {1,3-Bis[2-((R)-2-methylpyrrolidin-1-yl)ethyl]imidazolidin-2-ylidene}malononitrile]",≥ 80%,≥ 70%,139 to 141 °C
"C[C@H]1CCCN1CCCN1CCN(CCN2CCC[C@@H]2C)C1=C(C#N)C#N [Compound 56, {1-[2-((S)-2-methylpyrrolidin-1-yl)ethyl]-3-[3-((S) 2-methylpyrrolidin-1-yl)propyl]imidazolidin-2-ylidene}malononitrile]",≥ 80%,≥ 70%,70 to 72 °C
"CC1CCCN1CCCN1CCN(CCN2CCCC2C)C1=C(C#N)C#N (stereo not drawn) [Compound 11, {1-[2-(2-Methylpyrrolidin-1-yl)ethyl]-3-[3-(2-methylpyrrolidin-1-yl)propyl]imidazolidin-2-ylidene}malononitrile]",≥ 80%,≥ 70%,69 to 71 °C
"CN(CCN1CCCCC1)C(=C(C#N)C#N)N1CCC(N2CCCCC2)CC1 [Compound 144, {[Methyl(2-piperidinoethyl)amino](4-piperidinopiperidino)methylene}malononitrile]",≥ 80%,≥ 70%,109 to 111 °C
"CC(C)N1CCC(N2CCN(CCCN3CCSCC3)C2=C(C#N)C#N)CC1 [Compound 231, [1-(1-Isopropylpiperidin-4-yl)-3-(3-thiomorpholin-1-ylpropyl)imidazolidin-2-ylidene]malononitrile]",≥ 80%,≥ 70%,124 to 125 °C
"CC(C)N1CCC(N2CCN(CCCN3CCC(=O)CC3)C2=C(C#N)C#N)CC1 [Compound 233, {1-(1-Isopropylpiperidin-4-yl)-3-[3-(4-oxopiperidino)propyl]imidazolidin-2-ylidene}malononitrile]",≥ 80%,≥ 70%,103 to 105 °C
"CC1CCCN1CCCN1CCN(CCCN2CCCC2C)C1=C(C#N)C#N (stereo not drawn) [Compound 65, {1,3-Bis[3-(2-methylpyrrolidin-1-yl)propyl]imidazolidin-2-ylidene}malononitrile]",≥ 80%,≥ 70%,89 to 93 °C
"CC(C)N1CCC(N2CCN(CCCN3C[C@@H](C)O[C@@H](C)C3)C2=C(C#N)C#N)CC1 [Compound 234, {3-[3-(Cis-2,6-dimethylmorpholino)propyl]-1-(1-isopropylpiperidin-4-yl)imidazolidin-2-ylidene}malononitrile]",≥ 80%,≥ 70%,117 to 118 °C
